For orientation: Ki means a measure of affinity in units of concentration, obtained from inhibition or displacement. In general, IC50 refers to the midpoint of a concentration-inhibition curve.

Read-outs that look alike come from different tables or passages of the source.

Experiment [1] concerns the target recombinant rat homomeric GluK3 (Rattus norvegicus, UniProt P42264). The experiment can be described thus: Binding affinity at cloned homomeric GluK3 expressed in sf9 cells, [3H]-KA. The note with it: for GluK1/K3 (GluK1/GluK3 Ki selectivity ratio): ratio of Ki values at cloned homomeric receptors.
Experiment [2] concerns the target human EAAT2 (Homo sapiens, UniProt P43004). Description: [3H]-D-Asp uptake assay, EAAT2 stably expressed in HEK293 cells. It is filed as cell-based.
The target in experiment [3] is native NMDA receptors. Type of experiment: binding. The note with it: native iGluRs, rat synaptosomes.
For experiment [4], the target named is T1, human EAAT3 (Homo sapiens, UniProt P43005).
T1 sequence (P43005 1-524): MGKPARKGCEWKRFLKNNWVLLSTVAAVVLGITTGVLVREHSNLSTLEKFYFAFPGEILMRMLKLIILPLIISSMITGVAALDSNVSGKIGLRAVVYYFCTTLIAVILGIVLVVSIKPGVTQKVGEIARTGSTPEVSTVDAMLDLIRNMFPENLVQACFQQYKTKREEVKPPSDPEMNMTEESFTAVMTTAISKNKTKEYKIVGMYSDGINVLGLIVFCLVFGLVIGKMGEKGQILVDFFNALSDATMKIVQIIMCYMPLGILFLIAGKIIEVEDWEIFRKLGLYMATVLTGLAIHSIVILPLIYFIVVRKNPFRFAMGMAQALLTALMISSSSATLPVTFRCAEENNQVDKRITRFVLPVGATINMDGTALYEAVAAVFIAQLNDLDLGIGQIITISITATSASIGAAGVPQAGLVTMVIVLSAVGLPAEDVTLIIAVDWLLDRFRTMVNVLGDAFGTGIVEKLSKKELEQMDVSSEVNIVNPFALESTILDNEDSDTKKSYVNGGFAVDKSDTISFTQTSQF
The experiment can be described thus: [3H]-D-Asp uptake assay, EAAT3 stably expressed in HEK293 cells. Type of experiment: cell-based.

For experiment [5], the target named is native AMPA receptors. The experiment can be described thus: Binding affinity at native AMPA receptors, [3H]-AMPA, rat cortical synaptosomes. The note with it: native iGluRs.
In experiment [6] the target is recombinant rat homomeric GluK1 (Rattus norvegicus, UniProt P22756). The experiment can be described thus: Binding affinity at cloned homomeric GluK1 expressed in sf9 cells, [3H]-NF608.
Experiment [7] has as its target recombinant rat homomeric GluK2 (Rattus norvegicus, UniProt P42260). The experiment can be described thus: Binding affinity at cloned homomeric GluK2 expressed in sf9 cells, [3H]-KA.
For experiment [8], the target named is human EAAT1 (Homo sapiens, UniProt P43003). The experiment can be described thus: [3H]-D-Asp uptake assay, EAAT1 stably expressed in HEK293 cells. Type of experiment: cell-based.
human EAAT1, sequence (P43003 whole entry): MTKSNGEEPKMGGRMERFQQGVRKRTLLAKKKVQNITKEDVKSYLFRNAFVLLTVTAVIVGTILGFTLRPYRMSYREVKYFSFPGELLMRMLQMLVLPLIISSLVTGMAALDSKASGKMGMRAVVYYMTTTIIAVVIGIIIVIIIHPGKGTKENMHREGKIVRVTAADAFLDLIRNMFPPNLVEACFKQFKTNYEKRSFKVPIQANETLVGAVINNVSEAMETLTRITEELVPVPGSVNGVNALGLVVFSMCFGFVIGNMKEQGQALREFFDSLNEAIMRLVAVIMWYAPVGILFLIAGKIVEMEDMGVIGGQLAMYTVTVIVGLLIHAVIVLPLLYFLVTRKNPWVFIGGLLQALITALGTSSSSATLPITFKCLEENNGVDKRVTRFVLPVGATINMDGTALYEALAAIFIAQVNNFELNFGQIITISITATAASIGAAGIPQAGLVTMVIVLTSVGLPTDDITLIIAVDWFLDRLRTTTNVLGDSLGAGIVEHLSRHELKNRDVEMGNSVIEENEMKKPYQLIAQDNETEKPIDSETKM
Experiment [9] concerns the target native KA receptors. The experiment can be described thus: Binding affinity at native KA receptors, [3H]-KA, rat cortical synaptosomes. The note with it: native iGluRs, mean of at least three experiments.
Experiment [10] has as its target native AMPA receptors. The conditions noted are these: read-out: IC50 AMPA, cited from earlier work.
In experiment [11] the target is native NMDA receptors. The conditions noted are these: read-out: Ki NMDA, cited from earlier work.
Experiment [12] addresses native KA receptors. The conditions noted are these: cited from earlier work.
Experiment [13] addresses GluN1/GluN2A (Rattus norvegicus, UniProt Q00959). It is filed as cell-based. The conditions noted are these: from Ki values.
Experiment [14] deals with GluN1/GluN2A (Rattus norvegicus, UniProt P35439+Q00959). It is filed as cell-based.
Experiment [15] addresses GluN1/GluN2C (Rattus norvegicus, UniProt P35439+Q00961). It is filed as cell-based.
The target in experiment [16] is GluN1/GluN2B (Rattus norvegicus, UniProt P35439+Q00960). It is filed as cell-based.
GluN1/GluN2B, sequence (Q00960 27-1482, other chains not shown): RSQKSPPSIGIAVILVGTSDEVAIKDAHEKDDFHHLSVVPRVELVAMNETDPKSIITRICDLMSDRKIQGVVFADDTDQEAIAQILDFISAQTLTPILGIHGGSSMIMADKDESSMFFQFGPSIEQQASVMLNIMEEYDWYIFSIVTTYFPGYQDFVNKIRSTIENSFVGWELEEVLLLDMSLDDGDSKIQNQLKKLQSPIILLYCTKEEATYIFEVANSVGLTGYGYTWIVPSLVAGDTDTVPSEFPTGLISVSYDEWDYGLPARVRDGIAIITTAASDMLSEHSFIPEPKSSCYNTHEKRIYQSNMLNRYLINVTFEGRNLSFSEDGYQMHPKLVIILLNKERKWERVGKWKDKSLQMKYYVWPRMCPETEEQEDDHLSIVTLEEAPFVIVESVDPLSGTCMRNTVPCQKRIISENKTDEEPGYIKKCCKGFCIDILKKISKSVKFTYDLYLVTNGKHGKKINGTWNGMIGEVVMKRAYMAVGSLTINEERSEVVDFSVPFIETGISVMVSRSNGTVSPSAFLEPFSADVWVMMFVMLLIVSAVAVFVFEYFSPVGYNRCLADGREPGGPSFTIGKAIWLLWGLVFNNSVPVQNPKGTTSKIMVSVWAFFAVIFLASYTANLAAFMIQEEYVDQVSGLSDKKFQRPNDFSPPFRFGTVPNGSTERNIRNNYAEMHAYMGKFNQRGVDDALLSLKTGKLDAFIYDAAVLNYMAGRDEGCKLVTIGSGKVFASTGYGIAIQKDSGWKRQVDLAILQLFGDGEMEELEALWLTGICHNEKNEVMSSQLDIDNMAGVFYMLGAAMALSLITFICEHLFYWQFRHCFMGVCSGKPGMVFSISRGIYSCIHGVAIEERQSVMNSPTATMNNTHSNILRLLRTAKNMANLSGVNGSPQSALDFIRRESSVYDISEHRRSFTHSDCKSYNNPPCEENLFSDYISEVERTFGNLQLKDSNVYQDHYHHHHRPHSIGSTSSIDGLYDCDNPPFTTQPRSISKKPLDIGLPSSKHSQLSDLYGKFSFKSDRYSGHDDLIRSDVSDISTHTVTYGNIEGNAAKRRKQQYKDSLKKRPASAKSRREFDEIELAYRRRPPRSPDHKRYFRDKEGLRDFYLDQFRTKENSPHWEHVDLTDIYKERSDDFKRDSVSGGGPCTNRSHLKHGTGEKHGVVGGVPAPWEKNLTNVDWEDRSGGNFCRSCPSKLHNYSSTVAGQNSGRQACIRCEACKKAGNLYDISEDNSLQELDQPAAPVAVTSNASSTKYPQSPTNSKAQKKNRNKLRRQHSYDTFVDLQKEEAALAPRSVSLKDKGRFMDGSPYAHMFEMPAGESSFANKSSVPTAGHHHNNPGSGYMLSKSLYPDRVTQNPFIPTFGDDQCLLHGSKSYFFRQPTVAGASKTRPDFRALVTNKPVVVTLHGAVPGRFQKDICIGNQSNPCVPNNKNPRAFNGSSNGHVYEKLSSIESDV
In experiment [17] the target is GluN1/GluN2D (Rattus norvegicus, UniProt P35439+Q62645). Type of experiment: cell-based.
GluN1/GluN2D, sequence (Q62645 28-1323, other chains not shown): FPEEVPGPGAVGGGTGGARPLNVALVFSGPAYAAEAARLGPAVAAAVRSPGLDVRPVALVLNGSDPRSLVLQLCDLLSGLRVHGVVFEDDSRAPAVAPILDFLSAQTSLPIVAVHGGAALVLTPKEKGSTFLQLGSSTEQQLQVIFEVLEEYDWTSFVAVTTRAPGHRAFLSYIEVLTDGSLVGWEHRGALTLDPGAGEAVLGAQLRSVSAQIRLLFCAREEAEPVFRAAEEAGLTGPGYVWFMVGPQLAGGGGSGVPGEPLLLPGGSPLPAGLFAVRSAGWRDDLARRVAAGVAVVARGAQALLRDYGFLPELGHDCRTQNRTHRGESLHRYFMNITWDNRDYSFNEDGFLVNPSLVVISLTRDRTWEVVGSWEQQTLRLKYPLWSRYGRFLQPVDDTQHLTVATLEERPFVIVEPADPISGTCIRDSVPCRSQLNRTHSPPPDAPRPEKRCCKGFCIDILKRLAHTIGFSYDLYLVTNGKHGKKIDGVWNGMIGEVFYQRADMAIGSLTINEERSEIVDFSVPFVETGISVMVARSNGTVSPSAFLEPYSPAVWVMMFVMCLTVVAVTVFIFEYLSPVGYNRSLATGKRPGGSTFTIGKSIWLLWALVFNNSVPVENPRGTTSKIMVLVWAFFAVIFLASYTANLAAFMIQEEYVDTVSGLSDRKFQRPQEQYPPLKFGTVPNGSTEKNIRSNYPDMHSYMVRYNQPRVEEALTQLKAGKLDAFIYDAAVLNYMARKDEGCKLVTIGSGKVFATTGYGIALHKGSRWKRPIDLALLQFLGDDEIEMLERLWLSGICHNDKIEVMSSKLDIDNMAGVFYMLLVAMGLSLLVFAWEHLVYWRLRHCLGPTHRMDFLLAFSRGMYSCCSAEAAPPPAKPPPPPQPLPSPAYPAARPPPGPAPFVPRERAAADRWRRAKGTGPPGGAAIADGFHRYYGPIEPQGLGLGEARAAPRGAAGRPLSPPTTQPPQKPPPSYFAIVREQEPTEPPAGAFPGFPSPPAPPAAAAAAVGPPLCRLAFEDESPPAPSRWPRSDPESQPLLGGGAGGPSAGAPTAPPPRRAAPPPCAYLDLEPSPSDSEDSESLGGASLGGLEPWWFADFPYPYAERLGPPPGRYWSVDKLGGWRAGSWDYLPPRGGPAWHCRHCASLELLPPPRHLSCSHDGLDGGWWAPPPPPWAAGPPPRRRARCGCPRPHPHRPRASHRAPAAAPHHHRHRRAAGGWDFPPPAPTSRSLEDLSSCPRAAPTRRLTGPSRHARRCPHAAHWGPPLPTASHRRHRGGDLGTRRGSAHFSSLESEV

recombinant rat homomeric GluK3, sequence (P42264 32-919): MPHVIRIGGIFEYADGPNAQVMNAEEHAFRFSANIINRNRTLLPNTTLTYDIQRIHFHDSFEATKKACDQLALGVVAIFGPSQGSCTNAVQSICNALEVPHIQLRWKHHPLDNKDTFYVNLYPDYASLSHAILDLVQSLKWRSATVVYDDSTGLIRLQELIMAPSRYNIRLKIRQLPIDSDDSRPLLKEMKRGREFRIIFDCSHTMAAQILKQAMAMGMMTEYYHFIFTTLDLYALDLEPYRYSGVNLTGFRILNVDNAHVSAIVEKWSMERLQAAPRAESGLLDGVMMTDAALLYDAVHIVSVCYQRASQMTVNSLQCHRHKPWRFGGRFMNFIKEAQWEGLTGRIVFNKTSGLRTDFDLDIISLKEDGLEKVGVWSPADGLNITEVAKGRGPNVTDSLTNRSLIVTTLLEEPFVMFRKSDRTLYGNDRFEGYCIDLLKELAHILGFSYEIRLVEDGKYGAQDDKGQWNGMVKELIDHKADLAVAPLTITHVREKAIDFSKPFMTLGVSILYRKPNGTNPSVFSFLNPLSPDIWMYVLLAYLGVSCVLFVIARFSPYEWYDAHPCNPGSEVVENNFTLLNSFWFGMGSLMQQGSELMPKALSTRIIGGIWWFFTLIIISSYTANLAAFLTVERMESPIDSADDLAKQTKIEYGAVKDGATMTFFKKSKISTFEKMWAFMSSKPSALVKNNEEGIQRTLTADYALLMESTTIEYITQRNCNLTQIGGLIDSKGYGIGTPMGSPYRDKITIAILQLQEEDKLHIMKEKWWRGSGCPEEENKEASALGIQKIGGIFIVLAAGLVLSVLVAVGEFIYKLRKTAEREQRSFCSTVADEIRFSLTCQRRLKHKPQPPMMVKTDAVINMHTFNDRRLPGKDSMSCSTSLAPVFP
human EAAT2, sequence (P43004 whole entry): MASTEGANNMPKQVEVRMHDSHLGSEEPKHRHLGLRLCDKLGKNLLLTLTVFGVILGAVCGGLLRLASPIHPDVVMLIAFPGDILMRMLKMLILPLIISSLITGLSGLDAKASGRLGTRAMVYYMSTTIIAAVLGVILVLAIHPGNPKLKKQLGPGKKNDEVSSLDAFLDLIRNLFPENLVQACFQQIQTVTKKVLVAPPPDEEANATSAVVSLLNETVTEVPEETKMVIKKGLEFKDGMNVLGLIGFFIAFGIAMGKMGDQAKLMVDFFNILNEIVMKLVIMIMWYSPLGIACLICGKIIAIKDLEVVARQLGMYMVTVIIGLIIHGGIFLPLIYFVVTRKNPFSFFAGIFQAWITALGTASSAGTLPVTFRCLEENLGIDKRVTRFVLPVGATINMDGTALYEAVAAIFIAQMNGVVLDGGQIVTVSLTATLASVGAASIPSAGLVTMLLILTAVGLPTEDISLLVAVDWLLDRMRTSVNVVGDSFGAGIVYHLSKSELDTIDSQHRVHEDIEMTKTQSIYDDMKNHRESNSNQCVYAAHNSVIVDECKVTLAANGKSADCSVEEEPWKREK

In the case of `Cl.Cl.NC(C(=O)O)[C@@H]1CCN[C@H]1C(=O)O` (relative stereo) [3k, trans-3-(Amino(carboxy)methyl)pyrrolidine-2-carboxylic Acid Dihydrochloride], the Ki in [1] was 33 ± 2.4 µM; in [6], above 100 µM; in [7], above 100 µM. The “GluK1/K3 (GluK1/GluK3 Ki selectivity ratio)” value in experiment [1] is on record as above 3. In addition, the 50% inhibitory concentration (IC50) in experiment [2], in [4] and in [8] was above 300 µM throughout. Besides, the “pKi NMDA (mean ± SEM, in brackets)” value in experiment [3] is given as 5.06 ± 0.02. The “pIC50 AMPA (mean ± SEM, in brackets)” value in [5] was determined as 4.51 ± 0.03. In addition, in [9], the “IC50 KA” value is above 100 µM.

With `CN[C@H](CC(=O)O)C(=O)O` [NMDA, N-methyl-D-aspartate, reference compound], in [10], the concentration for half-maximal inhibition (IC50) is above 100 µM. In [11], the Ki was 35 µM. In experiment [12], the “IC50 KA” value is above 100 µM.

As to `Cl.O=C(O)C(Cc1nnn[nH]1)[C@@H]1CCN[C@H]1C(=O)O` (relative stereo) [3q-s3,4, trans-3-(1-Carboxy-2-(1H-tetrazol-5-yl)ethyl)pyrrolidine-2-carboxylic Acid Hydrochloride], the “fold preference as antagonist for GluN1/GluN2A over GluN1/GluN2B-D” value in [13] is listed as 4.4−100 fold. Moreover, the Ki was 0.61 ± 0.02 µM in [14], 12 ± 1 µM in experiment [15], 2.7 ± 0.1 µM in [16] and 62 ± 9 µM in [17]. The “pKi NMDA (mean ± SEM, in brackets)” value in experiment [3] is listed as 6.61 ± 0.07.

Turning to `Cl.O=C(O)C[C@H]1CCN[C@@H]1C(=O)O` [3a, (2S,3R)-3-(Carboxymethyl)pyrrolidine-2-carboxylic Acid Hydrochloride], the IC50 in experiment [10] (native receptors, ref [67]) was 106 µM; in [2] (read-out: IC50 EAAT2, HEK293 cells, [3H]-D-Asp uptake) it was above 300 µM; in experiment [4] (read-out: IC50 EAAT3, HEK293 cells, [3H]-D-Asp uptake) it was above 300 µM; in [8] (read-out: IC50 EAAT1, HEK293 cells, [3H]-D-Asp uptake) it was above 300 µM. In addition, in [11] (native receptors, ref [67]), the Ki is 0.5 µM. For the same compound, the “GluK1/K3 (GluK1/GluK3 Ki selectivity ratio)” value in experiment [1] came to 6. Besides, the “IC50 KA” value in experiment [12] (native receptors, ref [67]) is 1.6 µM.

Values taken from publication PMC6597265 (ACS chemical neuroscience, 2019).
